From patent US20260234211A1, “POLYPEPTIDE HAVING MODIFIED STRUCTURE AND USE THEREOF” (Guangdong Raynovent Biotech Co., Ltd., priority 2023, published 2026)

Columns and labels:
[1] = Pharmacokinetic properties in Cynomolgus macaques; settings: cynomolgus monkey, in vivo
Outline: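 Non-juvenile male cynomolgus macaques were used, three per compound. Plasma was sampled from 1 h to 240 h after administration. Drug levels were quantified by LC-MS/MS and pharmacokinetic parameters calculated from the concentration–time data.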

GIPR = target: T1, GIPR (Homo sapiens, UniProt P48546); assay: In vitro GIPR agonistic activity test (cAMP, CHO cell line); format: cell-based; settings: CHO cells expressing GIPR, read-out: GIP-1 EC50
T1 construct: host or cells: CHO
T1 sequence (P48546 22-466): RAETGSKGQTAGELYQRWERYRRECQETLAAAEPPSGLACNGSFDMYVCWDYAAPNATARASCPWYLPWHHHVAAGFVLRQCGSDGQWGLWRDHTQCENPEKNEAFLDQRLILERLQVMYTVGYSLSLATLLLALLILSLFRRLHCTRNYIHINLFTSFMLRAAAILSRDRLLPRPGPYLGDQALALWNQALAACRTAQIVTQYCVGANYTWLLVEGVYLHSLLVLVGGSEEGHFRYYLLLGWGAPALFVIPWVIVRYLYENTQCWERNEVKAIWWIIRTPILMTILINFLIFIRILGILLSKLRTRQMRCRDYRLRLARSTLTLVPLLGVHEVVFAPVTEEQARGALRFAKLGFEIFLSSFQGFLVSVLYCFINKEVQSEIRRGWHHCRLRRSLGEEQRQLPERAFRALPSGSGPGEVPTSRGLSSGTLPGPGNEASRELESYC
Experimental: (§1) The cell lines were constructed by Pharmaron Inc. See details in the table below.
(§2) The test compounds were diluted at a 5-fold dilution factor in 10 points, starting from an initial concentration of 200 nM.
(§3) 1) The cell lines were cultured respectively in complete medium at 37° C. and 5% CO2.
(§4) 1) Eu-cAMP tracer was freeze-thawed and diluted 50 fold with detection buffer; and Ulight-anti-cAMP was freeze-thawed and diluted 150 fold with detection buffer.
(§5) 3) 10 μL of Eu-cAMP tracer was added and then 10 μL of Uligh-anti-cAMP was added into experimental wells respectively.
(§6) 4) The reaction plate was centrifuged at 200 g at room temperature for 30 s and left for stand at 25° C. for 1 h.

DIO obesity mouse model = assay: Pharmacodynamics in DIO obesity mouse model; format: in vivo; settings: DIO mice
Text: Experimental purpose: To evaluate the effects of multiple administration of the test substance (compound) on body weight and glucolipid metabolism.
In this experiment, mice were used as test animals, which were induced with a high-fat diet (Research Diets: D12492) from 4-5 weeks old for 8 weeks, and the animals were grouped according to their body weights and fasting blood glucose levels, with the average body weight of the model animals being 47.2±0.3 g, the average body weight of the control animals being 27.9±0.3 g, the average fasting blood glucose of the model animals being 8.8±0.2 mmol/L, and the average fasting blood glucose of the control animals being 6.0±0.2 mmol/L. There were six animals in each group. The animals were administered immediately after grouping and were administered by subcutaneous injection every 3 days for 22 consecutive days. Both the normal control and model groups were given with vehicle (20 mM citrate buffer). Body weight and food intake were measured twice a week. Fasting blood glucose was tested on Days 10 and 20, OGTT test was performed on Day 20, and blood was collected on Day 23 to test the liver function indicators (ALT, AST, ALP) and serum lipid metabolism indicators (TC, TG, HDL, LDL). Liver tissues were taken to calculate organ indexes, and liver lipid metabolism indicators (hepatic TC, TG) were detected. The liver tissues were examined pathologically (HE, Oil Red) to evaluate the effects of the test substances on body weight and glucolipid metabolism in a high-fat diet-induced obesity mouse model.
The experimental data of each group of animals was described as mean±standard error (X±SEM). P<0.05 indicated the statistically significant difference. All statistical analysis was completed using Graphpad 8.0 software.

GCGR = target: T2, GCGR (Homo sapiens, UniProt P47871); assay: In vitro GCGR agonistic activity test (cAMP, HEK293 cell line); format: cell-based; settings: cAMP, HEK293 cells expressing GCGR; read-out: GCG EC50
T2 construct: host or cells: HEK293
T2 sequence (P47871 26-477, species assumed): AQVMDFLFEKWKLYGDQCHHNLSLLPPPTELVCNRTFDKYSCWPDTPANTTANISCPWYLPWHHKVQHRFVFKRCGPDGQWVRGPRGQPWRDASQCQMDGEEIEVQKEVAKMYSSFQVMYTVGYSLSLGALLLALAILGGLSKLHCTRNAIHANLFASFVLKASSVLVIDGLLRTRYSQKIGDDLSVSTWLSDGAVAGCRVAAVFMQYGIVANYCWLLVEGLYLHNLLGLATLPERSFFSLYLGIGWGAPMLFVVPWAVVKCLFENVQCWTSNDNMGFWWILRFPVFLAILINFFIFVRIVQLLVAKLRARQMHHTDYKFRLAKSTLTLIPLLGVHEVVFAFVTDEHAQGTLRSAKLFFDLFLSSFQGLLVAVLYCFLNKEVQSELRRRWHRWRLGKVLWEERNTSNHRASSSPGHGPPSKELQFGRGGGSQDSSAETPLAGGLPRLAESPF
Experimental: as §1, §2, §3
2) After digestion with TrypLE, the cells were re-suspended in experimental buffer respectively, and inoculated in a CulturPlate-384 cell culture plate at a density of 2000 cells/well and at a volume of 15 μL/well.
as §4
2) 5 μL of the test compounds were added respectively into experimental wells of the CulturPlate-384 cell culture plate, which was centrifuged at 200 g for 30 s, and left for stand at 37° C. for 30 min.
as §5, §6
5) Envision 2105 was used to collect data, with excitation light at 340 nm and emission light at 665 nm and 615 nm.

GLP-1R = target: T3, GLP-1R (Homo sapiens, UniProt P43220); assay: In vitro GLP-1R agonistic activity test (cAMP, HEK293 cell line); format: cell-based; settings: cAMP, HEK293 cells expressing GLP-1R; read-out: GLP-1 EC50
T3 construct: host or cells: HEK293
T3 sequence (P43220 24-463, species assumed): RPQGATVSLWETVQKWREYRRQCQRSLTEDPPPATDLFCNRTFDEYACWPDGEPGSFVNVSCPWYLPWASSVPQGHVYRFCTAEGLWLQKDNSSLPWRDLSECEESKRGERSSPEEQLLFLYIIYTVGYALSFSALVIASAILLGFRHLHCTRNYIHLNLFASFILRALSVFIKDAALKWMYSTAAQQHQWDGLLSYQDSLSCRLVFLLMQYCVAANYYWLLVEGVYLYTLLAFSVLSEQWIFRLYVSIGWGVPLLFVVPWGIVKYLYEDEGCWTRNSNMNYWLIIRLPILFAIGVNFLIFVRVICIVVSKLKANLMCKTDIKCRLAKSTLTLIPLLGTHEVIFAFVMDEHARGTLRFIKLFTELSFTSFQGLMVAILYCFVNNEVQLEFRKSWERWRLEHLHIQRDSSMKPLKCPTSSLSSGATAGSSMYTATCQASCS
Experimental: as §1, §2, §3, §4, §5, §6

[2] = Metabolic stability in human kidney S9; format: in vitro ADME; settings: human, s9
Experimental: The metabolic stability of the compounds in human kidney was evaluated to determine whether the drugs would be degraded by metabolic enzymes in the kidney to affect the efficacies and pharmacokinetics. 1. Relevant solutions were formulated. 2. a) With cofactors (NADPH & UDPGA): NADPH and UDPGA were added during the incubation. […] H2O was added into the culture solution. The final concentration of KS9 Fractions was 1 mg/mL. The mixture was pre-heated at 37° C. for 10 min. […] In this study, 7-hydroxy-coumarin and Raloxifene were used as the positive control. The final concentration of the positive control compounds was 0.2 μM, and the final concentration of the test compound was 1 μM. The culture solution was incubated in water bath at 37° C. 4. At 0.5, 5, 15, 30 and 60 min, volume aliquots were taken from the reaction solution and the reaction was stopped by adding acetonitrile. The samples were centrifuged for 30 min. The supernatant was taken and mixed with ultrapure water for subsequent LC-MS/MS analysis. 5. Data analysis: All calculation was conducted using Microsoft Excel. Peak areas were determined and slope values were calculated based on the extracted ion chromatograms.

half-life at 1 μM [2]	microsomal CLint at 1 μM [2]	SMILES	AUC(0-inf) [1]	AUC(0-t) [1]	Cmax [1]	Tmax [1]	half-life [1]	EC50 (GIPR)	Liver-body ratio (DIO obesity mouse model; 10 nmol/kg subcutaneous every 3 days)	Change rate of body weight on Day 22 (DIO obesity mouse model; 10 nmol/kg subcutaneous every 3 days, first experiment)	Change rate of body weight on Day 22 (DIO obesity mouse model; 10 nmol/kg, second experiment with similar protocol)	Fasting blood glucose, Day 0 (DIO obesity mouse model; Day 0 (at grouping), 10 nmol/kg group)	Fasting blood glucose, Day 10 (DIO obesity mouse model; Day 10, 10 nmol/kg subcutaneous every 3 days)	Fasting blood glucose, Day 20 (DIO obesity mouse model; Day 20, 10 nmol/kg subcutaneous every 3 days)	EC50 (GCGR)	EC50 (GLP-1R)	half-life [2]	microsomal CLint [2]
		CC[C@H](C)[C@H](NC(=O)[C@H](Cc1ccccc1)NC(=O)[C@H](C)NC(=O)C(C)(C)NC(=O)[C@H](CCC(N)=O)NC(=O)[C@H](C)NC(=O)[C@H](CCCCNC(=O)COCCOCCNC(=O)CC[C@H](NC(=O)CCCCCCCCCCCCCCCCCCC(=O)O)C(=O)O)NC(=O)[C@H](CCCCN)NC(=O)[C@H](CC(=O)O)NC(=O)[C@H](CC(C)C)NC(=O)[C@](C)(CC(C)C)NC(=O)[C@@H](NC(=O)[C@H](CO)NC(=O)[C@H](Cc1ccc(O)cc1)NC(=O)[C@H](CC(=O)O)NC(=O)[C@H](CO)NC(=O)[C@@H](NC(=O)[C@H](Cc1ccccc1)NC(=O)[C@@H](NC(=O)CNC(=O)[C@H](CCC(N)=O)NC(=O)C(C)(C)NC(=O)[C@@H](N)Cc1ccc(O)cc1)[C@@H](C)O)[C@@H](C)O)[C@@H](C)CC)C(=O)N[C@@H](CCC(=O)O)C(=O)N[C@@H](Cc1ccc(O)cc1)C(=O)N[C@@H](CC(C)C)C(=O)N[C@@H](CC(C)C)C(=O)N[C@@H](CCC(=O)O)C(=O)NCC(=O)NCC(=O)N1CCC[C@H]1C(=O)N[C@@H](CO)C(=O)N[C@@H](CO)C(=O)NCC(=O)N[C@@H](C)C(=O)N1CCC[C@H]1C(=O)N1CCC[C@H]1C(=O)N1CCC[C@H]1C(=O)N[C@@H](CO)C(N)=O [LY3437943, reference compound]	2.93 µM·h	2.7 µM·h	22.1 nM	29.3 h	58.8 h	1 pM	0.032 ± 0.003 g/g	−29.19 ± 2.94%	−26.32 ± 1.91%	8.2 ± 0.3 mmol/L	5.2 ± 0.9 mmol/L	6.2 ± 0.4 mmol/L	31 pM	14 pM	> 3.08 h	< 3.75 µL/min/mg
> 3.08 h	< 3.75 µL/min/mg	CC[C@H](C)[C@H](NC(=O)[C@H](Cc1ccccc1)NC(=O)[C@@H]1CCCCNC(=O)CN(C(=O)COCCOCCNC(=O)COCCOCCNC(=O)CC[C@H](NC(=O)CCCCCCCCCCCCCCCCCCC(=O)O)C(=O)O)CC(=O)NCCCC[C@H](NC(=O)[C@H](CCCCN)NC(=O)[C@H](CC(=O)O)NC(=O)[C@H](CC(C)C)NC(=O)[C@](C)(CC(C)C)NC(=O)[C@@H](NC(=O)[C@H](CO)NC(=O)[C@H](Cc2ccc(O)cc2)NC(=O)[C@H](CC(=O)O)NC(=O)[C@H](CO)NC(=O)[C@@H](NC(=O)[C@H](Cc2ccccc2)NC(=O)[C@@H](NC(=O)CNC(=O)[C@H](CCC(N)=O)NC(=O)C(C)(C)NC(=O)[C@@H](N)Cc2ccc(O)cc2)[C@@H](C)O)[C@@H](C)O)[C@@H](C)CC)C(=O)N[C@@H](C)C(=O)N[C@@H](CCC(N)=O)C(=O)NC(C)(C)C(=O)N1)C(=O)N[C@@H](CCC(=O)O)C(=O)N[C@@H](Cc1ccc(O)cc1)C(=O)N[C@@H](CC(C)C)C(=O)N[C@@H](CC(C)C)C(=O)N[C@@H](CCC(=O)O)C(=O)NCC(=O)NCC(=O)N1CCC[C@H]1C(=O)N[C@@H](CO)C(=O)N[C@@H](CO)C(=O)NCC(=O)N[C@@H](C)C(=O)N1CCC[C@H]1C(=O)N1CCC[C@H]1C(=O)N1CCC[C@H]1C(=O)N[C@@H](CO)C(N)=O [Example 1, YAibQGT FTSDY SIα- MeLLD K^1KAQAib ^1KFIEY LLEGG PSSGA PPPS-NH2 (SEQ ID NO: 1)]						1 pM								9 pM		
